Assay results as given in patent publication US5397702A, “Assay for and treatment of autoimmune diseases” (priority 1990, dated 1995).
Numbering of substitutions follows the chain as printed. Like-named read-outs stand apart in the source and are kept apart here.

How the values were obtained:
[1] = target: T1, type l K+ channel (human) (Homo sapiens, UniProt P48547); assay: Patch-clamp pharmacology of type l K+ channels in human Louckes lymphoma cells; type: cell-based
T1 construct: Native channels; endogenous in cells; host or cells: Louckes human B cell lymphoma line
T1 sequence (P48547 1-511): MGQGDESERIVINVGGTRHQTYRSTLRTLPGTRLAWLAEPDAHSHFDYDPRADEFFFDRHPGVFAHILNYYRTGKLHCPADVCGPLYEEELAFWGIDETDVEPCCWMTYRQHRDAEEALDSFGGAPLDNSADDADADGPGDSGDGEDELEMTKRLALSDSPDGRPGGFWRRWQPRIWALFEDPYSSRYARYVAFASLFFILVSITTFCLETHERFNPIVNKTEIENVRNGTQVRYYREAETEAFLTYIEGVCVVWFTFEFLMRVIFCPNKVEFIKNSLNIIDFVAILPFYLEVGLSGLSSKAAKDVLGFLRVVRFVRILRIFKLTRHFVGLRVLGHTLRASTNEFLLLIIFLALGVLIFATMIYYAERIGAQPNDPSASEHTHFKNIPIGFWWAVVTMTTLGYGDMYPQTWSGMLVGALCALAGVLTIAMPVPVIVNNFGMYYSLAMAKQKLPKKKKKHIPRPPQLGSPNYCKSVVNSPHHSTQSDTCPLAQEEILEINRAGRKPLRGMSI
Description: For the two-electrode voltage-clamp experiments, cells were bathed in oocyte Ringer solution containing 96mM NaCl, 2 mM KCl, 1.8 mM CaCl2, 1 mM MgCl2, 5 mM N-2-hydroxyethylpiperazine-N'-2-ethanesulfonic acid (HEPES), and adjusted to pH 7.5 with NaOH. The pipette solution was 3 M KCl. Patch-clamp experiments were carried out under identical conditions in oocytes and in T cells, using a mammalian Ringer solution containing 160 mM NaCl, 4.5 mM KCl, 2 mM CaCl2,1 mM MgCl2, 5 mM HEPES, and adjusted to pH 7.4 with NaOH and a total osmolarity of 290-320 mosm/kg. Internal (pipette) solutions contained: 140 mM KF, 2 mM MgCl2, 1 mM CaCl2, 5mM HEPES, 11 mM K2 -ethylene glycol-bis(β-aminoethylether)N,N,N',N'-tetraacetic acid (EGTA). CTX was purchased from Latoxan (IBF-Biotechnics, Inc., Columbia, Md.).
(§1) The patch-clamp amplifier (List L/M-EPC 7, Adams and List Associates, Ltd., Great Neck, N.Y.) was used in the voltage-clamp mode without series resistance compensation. Patchclamp electrodes were pulled from Accu-fill 90 Micropets (Becton, Dickinson & Co., Parsippany, N.J.) in three stages, coated with Sylgard (Dow Corning Corp., Midland, Mich.) and fire-polished to resistances, measured in the bath, of 2-7 M.OMEGA.. In all patch-clamp experiments, the command input of the patch-clamp amplifier was controlled by a PDP 11/73 computer via a digital-analog converter, and membrane currents were recorded at a bandwidth of 2 kHz. The holding potential was adjusted in all experiments to E=-80 mV. Correction for capacitative currents was achieved by analog subtraction.
Type l Channels in a Human Lymphoma Line: The human B cell lymphoma line, Louckes, has been reported to express large numbers of type l K+ channels (Shapiro and DeCoursey, (1988) Biophys. J. 53, 550a). We have confirmed that Louckes cells display a K+ channel with gating kinetics and pharmacological sensitivities indistinguishable from the type l K+ channels of mouse T cells (Table I and II). Because Louckes is a human cell line, it should be possible to compare the Kv3.1 transcripts isolated from these cells with Kv3.1 transcripts isolated from mouse T cells.

rKv3.1 cDNA (Kv4) = details: data from Luneau, et al., 1991; read-out: Blockers, Kd / half-blocking dose; cited from earlier work
mKv3.1a cDNA (NGK2) = details: data from Yokoyama, et al., 1989, cited from earlier work
type n channels = details: cited from earlier work
[2] = target: T2, type n K+ channel (mouse) (Mus musculus, UniProt P16390); assay: Patch-clamp pharmacology of type n K+ channels in mouse T cells; type: cell-based
T2 construct: Native channels; endogenous in cells; host or cells: mouse T cells
T2 sequence (P16390 whole entry): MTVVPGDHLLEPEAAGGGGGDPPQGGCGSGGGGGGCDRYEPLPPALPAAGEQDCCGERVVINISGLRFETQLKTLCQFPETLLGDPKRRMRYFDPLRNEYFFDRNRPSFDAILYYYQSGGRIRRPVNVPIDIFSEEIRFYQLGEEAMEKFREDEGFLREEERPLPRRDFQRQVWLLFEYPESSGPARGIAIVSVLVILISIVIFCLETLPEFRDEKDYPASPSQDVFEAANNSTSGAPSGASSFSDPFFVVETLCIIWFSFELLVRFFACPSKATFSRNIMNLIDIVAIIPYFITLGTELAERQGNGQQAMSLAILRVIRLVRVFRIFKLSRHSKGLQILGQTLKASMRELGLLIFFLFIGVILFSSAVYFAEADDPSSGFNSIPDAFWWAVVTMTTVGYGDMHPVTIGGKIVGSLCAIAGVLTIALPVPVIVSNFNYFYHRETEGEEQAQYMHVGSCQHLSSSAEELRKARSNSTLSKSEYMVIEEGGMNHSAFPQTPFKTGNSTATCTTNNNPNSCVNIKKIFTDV
Description: (§2) A gigohm seal patch-clamp technique was employed [Hamill, et al., Pflugers Arch. […] Cells were separated and stained as described infra. Maximum K^+ conductances (gk) Of CD4^- CD8^- Thy-l.2^+ T cells were determined from the maximum peak K^+ current elicited at +40 mV (holding potential -80 mV), assuming a reversal potential for K^+ of -80 mV. All experiments were done at room temperature (22° to 26° C.). The cells under investigation were bathed in Ringer solution (in mM): 160 NaCl, 4.5 KCl, 2 MgCl2, 1 CaCl2, 2 MgCl2, and 10 K-HEPES (pH 7.4). […] Each point represents gk in one single cell except the ones with the bars that reflect the mean±SD of previously reported data. The data from C3H (n=12), C3H-lpr (n=22), C3H-gld (n=26), and MRL-lpr (n=31) are taken from Grissmer, et al., J. Immunol. […] Three types of voltage-gated K^+ channels (n, l, n') are expressed by murine T cells, which can be distinguished by electrophysiological and pharmacological criteria. DeCoursey, et al., J. Gen.
(§3) K^+ channels were identified on the basis of their inactivation properties, channel closing kinetics, and sensitivity to block by tetraethylammonium (TEA). Typically type n K^+ channels are use-dependent, i.e., show cumulative inactivation by repetitive depolarizing pulses. Use dependence was determined by measuring the decline in the size of the peak K^+ current elicited with one per second repetitive depolarizing pulses of 200 ms duration.
(§4) (5) Electrophysiology: After phenotypic identification by epifluorescence microscopy, single T cells were patch-clamped at room temperature (22° to 26° C).
(§5) Solutions: The cells under investigation were bathed in normal mammalian Ringer solution containing (in mM): 160 NaCl, 4.5 KCl, 2 MgCl2, 1CaCl2, and 5 Na-HEPES (pH 7.4). […] In Ringer solutions containing tetraethylammonium chloride (TEA^+), NaCl was replaced by the appropriate TEA^+ concentrations keeping the osmolarity constant. The bath solution could be changed during recordings by bath perfusion.

[3] = target: T3, type l K+ channel (mouse) (Mus musculus, UniProt P15388); details: cited from earlier work; for effect on type l K+ channels, in words: MRL-lpr mice / mouse lymphocytes
T3 construct: Native channels; endogenous in cells; host or cells: mouse T cells (CD4-CD8- T cells of autoimmune strains such as MRL-lpr; normal cytotoxic T cells)
T3 sequence (P15388 1-511): T1 sequence (P48547 1-511) with I265V

mKv3.1b K+ channels = target: T4, mKv3.1b K+ channels (Mus musculus, UniProt P15388); assay: cell-based; type: cell-based
T4 construct: expressed in transfected cells; host or cells: Xenopus oocytes injected with mKv3.1b mRNA
T4 sequence (P15388 1-585 isoform P15388-3): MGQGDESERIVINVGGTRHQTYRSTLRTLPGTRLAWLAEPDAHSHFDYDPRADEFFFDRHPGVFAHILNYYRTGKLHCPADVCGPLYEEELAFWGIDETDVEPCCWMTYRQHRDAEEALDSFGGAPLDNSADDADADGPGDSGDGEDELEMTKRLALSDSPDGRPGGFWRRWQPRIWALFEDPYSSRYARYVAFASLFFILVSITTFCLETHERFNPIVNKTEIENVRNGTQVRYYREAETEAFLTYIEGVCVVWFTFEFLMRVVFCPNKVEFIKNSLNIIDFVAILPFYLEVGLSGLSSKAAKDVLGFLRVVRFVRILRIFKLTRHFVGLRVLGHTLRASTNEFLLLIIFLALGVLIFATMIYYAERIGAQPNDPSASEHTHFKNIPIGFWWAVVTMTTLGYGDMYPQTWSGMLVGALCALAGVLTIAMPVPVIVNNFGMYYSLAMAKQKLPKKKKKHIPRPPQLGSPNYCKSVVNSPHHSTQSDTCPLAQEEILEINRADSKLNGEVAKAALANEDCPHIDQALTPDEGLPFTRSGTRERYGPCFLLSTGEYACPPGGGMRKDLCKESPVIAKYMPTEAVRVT
Description: For transcription, the plasmid was linearized by digestion with SacI in the polylinker.
All experiments were done at room temperature (22°-26°C.).
(§6) The pipette solution was 3 M KCl. […] CTX was purchased from Latoxan (IBF-Biotechnics, Inc., Columbia, Md.).
as §1
Mouse Kv3.1b Expression in Oocytes: Xenopus oocytes express a high density of voltage-activated K+ channels following injection of mKv3.1b mRNA. […] Single channel recordings were done on outside-out patches from these oocytes, whereas gating and inactivation kinetics and pharmacological sensitivities were determined using outside-out patches of oocyte membrane injected with a 10 times more concentrated mRNA solution (50 nl of 0.1 μg/μ^1 mRNA).

[4] = target: T5, type n K+ channel (human) (Homo sapiens, UniProt P22001); assay: Patch-clamp pharmacology of type n K+ channels in human T cells; type: cell-based; details: for Kd: data from this paper
T5 construct: Native channels; endogenous in cells; host or cells: human T cells
T5 sequence (P22001 whole entry): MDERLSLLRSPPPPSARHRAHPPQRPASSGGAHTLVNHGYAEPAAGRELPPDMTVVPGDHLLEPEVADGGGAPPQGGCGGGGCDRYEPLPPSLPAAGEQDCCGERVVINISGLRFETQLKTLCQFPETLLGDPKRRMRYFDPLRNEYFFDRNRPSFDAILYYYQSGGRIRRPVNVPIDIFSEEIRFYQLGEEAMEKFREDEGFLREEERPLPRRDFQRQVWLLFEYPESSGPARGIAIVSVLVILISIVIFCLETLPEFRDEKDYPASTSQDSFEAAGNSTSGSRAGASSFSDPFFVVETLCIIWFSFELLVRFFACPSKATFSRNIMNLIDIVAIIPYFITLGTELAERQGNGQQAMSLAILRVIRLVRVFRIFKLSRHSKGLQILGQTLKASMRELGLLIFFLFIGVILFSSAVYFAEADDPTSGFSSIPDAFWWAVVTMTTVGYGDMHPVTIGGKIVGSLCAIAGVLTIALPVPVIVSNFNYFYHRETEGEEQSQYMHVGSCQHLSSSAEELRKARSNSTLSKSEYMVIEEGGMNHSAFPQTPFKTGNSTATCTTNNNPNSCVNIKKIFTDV
From the text: as §6, §1

[5] = target: T3, type l K+ channel (mouse); assay: Patch-clamp pharmacology of type l K+ channels in mouse T cells; type: cell-based; details: for Kd: data from this paper
Description: as §2, §3, §4, §5

[6] = target: T5, type n K+ channel (human); details: data from DeCoursey, et al., 1984, Sands, 1989, read-out: Blockers, Kd / half-blocking dose; cited from earlier work
[7] = target: T2, type n K+ channel (mouse); details: cited from earlier work
[8] = Louckes cells, read-out: Blockers, Kd / half-blocking dose
[9] = 20 mM Co^2+, data from this paper
[10] = 20 mM Co^2+, data from DeCoursey, et al., 1987
[11] = data from DeCoursey, et al., 1987, read-out: Blockers, Kd / half-blocking dose
[12] = first value, read-out: apparent dissociation constant Kd, from reduction of the integral under the current trace
[13] = second value, read-out: apparent dissociation constant Kd, from reduction of the peak current amplitude

For `Nc1ccncc1` [4-AP, 4-aminopyridine], the Kd [1, 8] is listed as less than 100 µM, the Kd (rKv3.1 cDNA (Kv4)) is listed as 300 µM and the Kd (mKv3.1a cDNA (NGK2); read-out: Blockers, Kd / half-blocking dose) is listed as 600 µM.
In the case of `[Co+2]` [Co^2+], the “effect on type n channels, in words” value (type n channels) is listed as “strongly blocked”, the “Effect of 20 mM Co^2+: block gK(Co)/gK” value [2, 9] is listed as 0.27 and the “Effect of 20 mM Co^2+: shift ΔEn” value [2, 9] is listed as 40 mV. For the same molecule, the “Effect of 20 mM Co^2+: block gK(Co)/gK” value ([1]; 20 mM Co^2+) was 0.76, the “Effect of 20 mM Co^2+: shift ΔEn” value ([1]; 20 mM Co^2+) was 30 mV and the “Effect of 20 mM Co^2+: block gK(Co)/gK” value [3, 10] was 0.9. For the same molecule, the “Effect of 20 mM Co^2+: shift ΔEn” value [3, 10] was 36 mV, the “effect on type l K+ channels, in words” value [3] was “strongly shift the voltage dependence of activation to more depolarized potentials, with minimal blocking” and the “Effect of 20 mM Co^2+: block gK(Co)/gK” value (mKv3.1b K+ channels; 20 mM Co^2+) was 0.75. The “Effect of 20 mM Co^2+: shift ΔEn” value (mKv3.1b K+ channels; 20 mM Co^2+) was 30 mV, the “Effect of Co^2+: block gK(Co)/gK” value ([4]; 10 mM Co^2+ (*)) was 0.2 and the “Effect of Co^2+: shift ΔEn” value ([4]; 10 mM Co^2+ (*)) was 28 mV.
In the case of `[La+3]` [La3+], the “effect on type n channels, in words” value (type n channels) is listed as “strongly blocked” and the “effect on type l K+ channels, in words” value [3] is listed as “strongly shift the voltage dependence of activation to more depolarized potentials, with minimal blocking”.
Work on `CC[N+](CC)(CC)CC` [TEA, tetraethylammonium] yielded an IC50 [2] of 10000 µM, a Kd [1, 8] of 120 µM and an IC50 ([1]; human Louckes lymphoma cells, read-out: half-blocking dose) of 100 µM. For the same molecule, the Kd [3, 11] was 80 µM, the Kd ([3]; type l channels of murine T cells, read-out: KD / half-blocking dose of block by TEA, identification criterion) was 100 µM and the IC50 [5] was 100 µM. The Kd [6] was 8000 µM, the Kd (mKv3.1b K+ channels; outside-out oocyte patch, pulses to +40 mV from -80 mV, read-out: Blockers, Kd / half-blocking dose) was 150 µM and the Kd [7, 11] was 10000 to 13000 µM. The Kd ([7]; type n channels of murine T cells, read-out: KD of block by TEA, identification criterion) was 8000 µM.
`C=C[C@H]1C[N@@]2CC[C@H]1C[C@H]2[C@H](O)c1ccnc2ccc(OC)cc12` [quinine] showed a Kd [1, 12] of 10 µM, a Kd [1, 13] of 20 µM and a Kd [5, 12] of 10 µM. For the same molecule, the Kd [5, 13] was 19 µM, the Kd (mKv3.1b K+ channels; 200 ms steps from -80 mV to 40 mV, first value, read-out: apparent dissociation constant Kd, from reduction of the integral under the current trace) was 4 µM and the “effect on mKv3.1b K+ currents, in words” value (mKv3.1b K+ channels; oocytes) was “increased the apparent rate of mKv3.1b K+ current inactivation, and produced "use-dependent" block”. For the same molecule, the Kd (mKv3.1b K+ channels; [13]) was 20 µM, the Kd (mKv3.1a cDNA (NGK2); read-out: Blockers, quinine) was 1000 µM and the Kd [4, 12] was 13 µM. For the same molecule, the Kd [4, 13] was 24 µM.
